Results from patent US4875922A, “Pyrimidine derivatives” (Imperial Chemical Industries PLC, priority 1986, dated 1989).

Assays:
[1] = tested on: Maize; assay: Whole plant screen for plant growth regulator activity, maize (MZ); assay type: in vivo, Maize (Earliking); conditions: 4000 ppm (4 kg/ha), visual score after 2-6 weeks
How it was run: (§1)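 Foliar spray, 4000 ppm (4 kg/ha, 1000 l/ha), tracksprayer. Glasshouse, 16 h light; MZ/RC 25/22° C., WW/BR 16/13° C. day/night. Visual morphological scoring at 2-6 wk vs formulation blank.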

[2] = tested on: Barley; assay: Whole plant screen for plant growth regulator activity, barley (BR); assay type: in vivo, Barley (Atem); conditions: for G = Greening effect / I = Interligular or internodal length reduction / R = Retardation / T = Tillering or side shooting: BR, 4000 ppm (4 kg/ha), visual score after 2-6 weeks; for T = Tillering or side shooting: * = decrease in tillering
How it was run: as §1

[3] = tested on: Plasmopara viticola; assay: Foliar fungal disease control, Plasmopara viticola (vine); assay type: in vivo; conditions: 100 ppm spray plus root drench (approximately 40 ppm a.i/dry soil), one or two days before inoculation
[4] = tested on: Apples; assay: Intermediate Retardant Test, apples, foliar spray compared with root drench; assay type: in vivo, Apples (Red Delicious); conditions: 672 h, approximately 28 days, Table IX, read-out: Percentage Reduction in Height of Apples (Compared to formulation blank); for percent reduction in plant height at 2000 ppm: 2000 ppm (Foliar); for percent reduction in plant height at 2000 µg/mL: soil, 2000 pmm (Root), root drench
How it was run: (§2)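 Overall spray at 500 and 2000 ppm (0.5 and 2 kg/ha^-1 at 1000 l/ha^-1); for apples, a 2000 ppm foliar-only spray was also compared with a 2000 ppm root drench. Rice grew in flooded 4" paddy pots, barley and apples in 4" pots. About 28 days after treatment, height (to top-most ligule, or to apex for apples) was recorded as % reduction versus formulation blank.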

[5] = tested on: Spring Barley; assay: Intermediate Retardant Test, spring barley; assay type: in vivo, Spring Barley (Atem/kym); conditions: Hordeum vulgare, 672 h, overall spray, approximately 28 days, Table VII, read-out: Percentage Reduction in Height of Spring Barley (Compared to formulation blank)
How it was run: as §2

[6] = tested on: Erysiphe graminis; assay: Foliar fungal disease control, Erysiphe graminis (barley); assay type: in vivo; conditions: 100 ppm spray plus root drench (approximately 40 ppm a.i/dry soil); inoculated 24 hours before treatment
[7] = tested on: Venturia inaequalis; assay: Foliar fungal disease control, Venturia inaequalis (apple); assay type: in vivo; conditions: 100 ppm spray plus root drench (approximately 40 ppm a.i/dry soil), one or two days before inoculation
[8] = tested on: Wheat; assay: Whole plant screen for plant growth regulator activity, wheat (WW); assay type: in vivo, Wheat (Timmo); conditions: WW, 4000 ppm (4 kg/ha), visual score after 2-6 weeks; for T = Tillering or side shooting: * = decrease in tillering
How it was run: as §1

[9] = tested on: Rice; assay: Whole plant screen for plant growth regulator activity, rice (RC); assay type: in vivo, Rice (Ishikari); conditions: 4000 ppm (4 kg/ha), visual score after 2-6 weeks; for T = Tillering or side shooting: * = decrease in tillering
How it was run: as §1

[10] = tested on: Cercospora arachidicola; assay: Foliar fungal disease control, Cercospora arachidicola (peanut); assay type: in vivo; conditions: 100 ppm spray plus root drench (approximately 40 ppm a.i/dry soil), one or two days before inoculation
[11] = tested on: Tomato; assay: Whole plant screen for plant growth regulator activity, tomato (TO); assay type: in vivo, Tomato (Ailsa Craig); conditions: 4000 ppm (4 kg/ha), visual score after 2-6 weeks
How it was run: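 Plant growth regulation scored visually 2–6 weeks post-spray, relative to formulation-blank controls, with growth at 25/22 °C day/night under 16 h light. Treatment: 4000 ppm (4 kg/ha, 1000 l/ha volume) track-sprayed onto Ailsa Craig tomato at the 2–2½ leaf stage, grown singly in 3-inch peat pots.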

[12] = tested on: Phytophthora infestans; assay type: in vivo; conditions: 100 ppm spray plus root drench (approximately 40 ppm a.i/dry soil), one or two days before inoculation
[13] = tested on: Pyricularia oryzae; assay type: in vivo; conditions: 100 ppm spray plus root drench (approximately 40 ppm a.i/dry soil), one or two days before inoculation
[14] = tested on: Puccinia recondita; assay: Foliar fungal disease control, Puccinia recondita (wheat); assay type: in vivo; conditions: 100 ppm spray plus root drench (approximately 40 ppm a.i/dry soil), one or two days before inoculation
[15] = tested on: Rice; assay: Intermediate Retardant Test, rice; assay type: in vivo, Rice (Ishikari); conditions: Oryza sativa, 672 h, overall spray, approximately 28 days, Table VI, read-out: Percentage Reduction in Height of Rice (Compared to formulation blank)
How it was run: as §2

[16] = tested on: Apple; assay: Whole plant screen for plant growth regulator activity, apple (AP); assay type: in vivo, Apple (Red Delicious); conditions: 4000 ppm (4 kg/ha), visual score after 2-6 weeks
How it was run: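 Compounds sprayed at 4000 ppm (4 kg/ha in 1000 l/ha) by tracksprayer at a defined leaf stage. Plants then grown in glasshouse at 25° C. day/22° C. night (wheat and barley 16° C. day/13° C. night), 16 hour photoperiod. Morphology visually assessed after 2-6 weeks against formulation blanks.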

[17] = tested on: Apples; assay: Intermediate Retardant Test, apples, overall spray; assay type: in vivo, Apples (Red Delicious); conditions: approximately 28 days, Table VIII
Description: Three species are involved in this test RICE, SPRING-BARLEY and APPLES. The variety and growth stages at spray are outlined in Table V. Compounds were applied at 500 ppm and 2000 ppm respectively (0.5 kg and 2 kg/ha^-1 at a field volume of 1000 l/ha^-1) as an overall spray except in the case of certain tests on APPLES. This gives a foliar and root component in the test, i.e., this test will detect the activity of both root and foliar acting compounds. The intermediate retardant test on APPLES of which the results are given in Table IX was different, in that a foliar (only) spray at 2000 ppm was compared with a root drench, also at 2000 ppm. The rice was grown in 4" `paddy` pots, i.e., the roots and bottom of the stems are immersed in water under conditions corresponding to those in paddy fields. Spring barley and apples were grown in 4" pots. The plants were assessed for height to top-most ligule at approximately 28 days after treatment for spring barley and rice and for height to apex at approximately 28 days after the treatment for apples. In each case the result for the 500 ppm and 2000 ppm test for each compound is compared to the height of the formulation blank in that test, presented as a percentage reduction in height compared to the formulation blank.

| SMILES | G = Greening effect [2] | I = Interligular or internodal length reduction [2] | R = Retardation [2] | disease control, PLASMOPARA VITICOLA (VINE) [3] | percent reduction in plant height at 500 ppm [5] | percent reduction in plant height at 2000 ppm [5] | disease control, ERYSIPHE GRAMINIS (BARLEY) [6] | R = Retardation [8] | T = Tillering or side shooting [8] | G = Greening effect [9] | I = Interligular or internodal length reduction [9] | R = Retardation [9] | disease control, CERCOSPORA ARACHIDICOLA (PEANUT) [10] | disease control, PH[…] (TOMATO) [12] | disease control, P[…] (RICE) [13] | disease control, PUCCINIA RECONDITA (WHEAT) [14] | Percent reduction in rice height vs formulation blank at 500 ppm [15] | Percent reduction in rice height vs formulation blank at 2000 ppm [15] | I = Interligular or internodal length reduction [16] | R = Retardation [16] | also measured |
| --- | --- | --- | --- | --- | --- | --- | --- | --- | --- | --- | --- | --- | --- | --- | --- | --- | --- | --- | --- | --- | --- |
| CC(C)CC#CC(O)(c1cncnc1)C(C)(C)C (stereo not shown) [Compound 16] | 2 (31-60%) | 2 (31-60%) | 3 (61-100%) | 0 (60-100% of disease on untreated plants) | 66% | 88% | 4 | 3 (61-100%) | 3 (61-100%) | 2 (31-60%) | 3 (61-100%) | 3 (61-100%) | 4 | 0 (60-100% of disease on untreated plants) | 3 (trace - 5% of disease on untreated plants) | 3 (trace - 5% of disease on untreated plants) | 59% | 65% | 3 (61-100%) | 3 (61-100%) | G = Greening effect [1]: 2 (31-60%); I = Interligular or internodal length reduction [1]: 3 (61-100%); R = Retardation [1]: 3 (61-100%); T = Tillering or side shooting ([1]; * = decrease in tillering): 1 (10-30%); percent reduction in plant height at 2000 ppm [4]: 6%; percent reduction in plant height at 2000 µg/mL [4]: 47%; disease control, VENTURIA INAEQUALIS (APPLE) [7]: 4; G = Greening effect [8]: 2 (31-60%); I = Interligular or internodal length reduction [8]: 3 (61-100%); T = Tillering or side shooting [9]: 1 (10-30%); G = Greening effect [11]: 2 (31-60%); I = Interligular or internodal length reduction [11]: 3 (61-100%); R = Retardation [11]: 3 (61-100%); G = Greening effect [16]: 3 (61-100%) |
| CCCCC#CC(O)(c1cncnc1)C(C)C (stereo not shown) [Compound 1, 2-methyl-1-(hex-1-yne)-1-(pyrimidin-5-yl)-propan-1-ol] | 2 (31-60%) | 3 (61-100%) | 3 (61-100%) | 0 (60-100% of disease on untreated plants) | 1.3% | 12.1% | 4 | 3 (61-100%) | 2 (31-60%) | 2 (31-60%) | 3 (61-100%) | 2 (31-60%) | 0 (60-100% of disease on untreated plants) | 0 (60-100% of disease on untreated plants) | 0 (60-100% of disease on untreated plants) | 0 (60-100% of disease on untreated plants) | 6.06% | 23% | 3 (61-100%) | 3 (61-100%) | I = Interligular or internodal length reduction [1]: 2 (31-60%); R = Retardation [1]: 2 (31-60%); T = Tillering or side shooting [2]: 1 (10-30%); Percentage Reduction in Height of Apples (Compared to formulation blank) ([17]; 500 ppm): 10.8%; Percentage Reduction in Height of Apples (Compared to formulation blank) ([17]; 2000 ppm): 39.2%; G = Greening effect [8]: 1 (10-30%); T = Tillering or side shooting [9]: 3 (61-100%); T = Tillering or side shooting ([16]; * = decrease in tillering): 1 (10-30%) |
| CC(C)(C)C(O)(C#CCCCCl)c1cncnc1 (stereo not shown) [Compound 19, 2,2-Dimethyl-1-(5-chloropent-1-yne)-1-(pyrimidin-5-yl)-propan-1-ol] | 1 (10-30%) | 3 (61-100%) | 3 (61-100%) | 0 (60-100% of disease on untreated plants) | 31% | 57% | 4 | 3 (61-100%) | 3 (61-100%) | 2 (31-60%) | 3 (61-100%) | 2 (31-60%) | 4 | 0 (60-100% of disease on untreated plants) | 0 (60-100% of disease on untreated plants) | 4 | 11% | 39% | 3 (61-100%) | 3 (61-100%) | A = Apical damage ([2]; 4000 ppm): 3 (61-100%); T = Tillering or side shooting [2]: 3 (61-100%); percent reduction in plant height at 2000 ppm [4]: 54%; percent reduction in plant height at 2000 µg/mL [4]: 65%; I = Interligular or internodal length reduction [8]: 3 (61-100%); G = Greening effect [11]: 2 (31-60%); I = Interligular or internodal length reduction [11]: 2 (31-60%); R = Retardation [11]: 2 (31-60%); G = Greening effect [16]: 1 (10-30%) |
